Experimental data published in patent US20060159762A1, “Stable pharmaceutical composition comprising an active substance in the form of solid solution” (priority 2004, published 2006).

Experiment: Comparative storage stability: total degradation products and related substances by HPLC
Assay type: physicochemical
Details: for increase of degradation products and related substances relative to the starting analysis, non-formulated active substance versus stable pharmaceutical composition (solid solution): 6 days storage on 60° C.
Procedure: Comparison of the total amount of degradation products and related substances in non-formulated active substance and in the stable pharmaceutical composition according to the present invention comprising the active substance in the form of solid solution is presented by the graph 1. The pharmaceutical composition is prepared as described in example 2. The amount of degradation products and related substances is determined by HPLC method. [drawing]
Comparison of the total amount of degradation products and related substances in non-formulated active substance and in the stable pharmaceutical composition according to the present invention comprising the active substance in the form of solid solution is presented in graph 2. The pharmaceutical composition is prepared as described in example 5. The amount of degradation products and related substances is determined by HPLC method. [drawing] [drawing]

Compound: COc1ccc2[n-]c([S+]([O-])Cc3ncc(C)c(OC)c3C)nc2c1.COc1ccc2[n-]c([S+]([O-])Cc3ncc(C)c(OC)c3C)nc2c1.[Mg+2] (stereo not drawn) [esomeprazole magnesium, Esomeprazole magnesium]
- increase of degradation products and related substances relative to the starting analysis, non-formulated active substance versus stable pharmaceutical composition (solid solution) (composition prepared as described in example 2): four times higher
- increase of degradation products and related substances relative to the starting analysis, non-formulated active substance versus stable pharmaceutical composition (solid solution) (composition prepared as described in example 5): > 10 times
- increase of the amount of degradation products and related substances relative to the starting analysis, non-formulated active substance versus stable pharmaceutical composition (solid solution) (14 days storage on 40° C., composition prepared as described in example 2): three times higher
